Measurements from PMC3688948, “Distinctive G Protein-Dependent Signaling by Protease-Activated Receptor 2 (PAR2) in Smooth Muscle: Feedback Inhibition of RhoA by cAMP-Independent PKA” (PLoS ONE, 2013).
Where two headings read alike, the source gives them in different places. Peptide text beside a SMILES is read from it. * marks the point of attachment. Myristoyl = CCCCCCCCCCCCCC(=O)*; Cbz = O=C(OCc1ccccc1)*

Experiments:
[1] = system: NF-kB/PKA catalytic subunit complex; experiment: Association of PKA catalytic subunit with NF-kB (co-immunoprecipitation); type: cell-based, rabbit; conditions: cells transfected with PAR2-specific siRNA, PAR2-AP 10 min
PAR2 [2] = target: T1, PAR2 (Oryctolagus cuniculus, UniProt G1SHU9); experiment: PAR2 expression (western blot); type: cell-based, rabbit; conditions: transfection with PAR2-specific siRNA for 48 h, cultured cells
T1 construct: Freshly dispersed muscle cells labelled with myo-2-[^3H]inositol were incubated with different concentrations of PAR2-AP for 60 s; endogenous in cells; host or cells: freshly dispersed and primary cultured rabbit gastric smooth muscle cells
T1 sequence (G1SHU9 25-397): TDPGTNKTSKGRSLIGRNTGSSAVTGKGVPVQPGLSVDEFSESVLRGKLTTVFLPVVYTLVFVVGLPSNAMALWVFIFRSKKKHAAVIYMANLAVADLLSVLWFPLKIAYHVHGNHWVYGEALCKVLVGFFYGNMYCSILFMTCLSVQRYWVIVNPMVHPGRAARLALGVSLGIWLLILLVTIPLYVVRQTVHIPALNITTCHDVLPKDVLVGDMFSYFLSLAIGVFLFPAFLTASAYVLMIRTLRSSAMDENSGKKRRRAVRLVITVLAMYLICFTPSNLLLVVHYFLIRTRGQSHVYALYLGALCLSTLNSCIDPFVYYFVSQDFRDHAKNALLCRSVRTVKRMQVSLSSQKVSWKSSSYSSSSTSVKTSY

PAR2 [3] = target: T1, PAR2; type: cell-based, rabbit
adenylyl cyclase = experiment: Forskolin-stimulated cAMP formation (adenylyl cyclase activity); type: cell-based, rabbit; conditions: forskolin 10 µM, 10 min, 100 µM isobutyl methyl xanthine; basal 2.8±0.5 pmol/mg protein; n = 4
Method: Adenylyl cyclase activity was measured by the formation of cAMP in response to agonists by radioimmunoassay using [^125I]cAMP [18], [21]. One ml (3×10^6 cells/ml) of cell suspension was treated for 60 s with forskolin (10 µM) in the presence of 100 µM isobutylmethyl xanthine, either alone or in combination with PAR2-AP (1 µM). The reaction was terminated with cold 6% trichloroacetic acid (v/v) and vortexed vigorously. After centrifugation, the supernatants were extracted three times with water-saturated diethyl ether to remove the tricholoroacetic acid and the samples were then lyophilized and frozen at –20°C. The samples were reconstituted for radioimmunoassay in 50 µl of 50 mM sodium acetate (pH 6.2) and acetylated with triethylamine/acetic anhydride (2∶1 v/v) for 30 min. […] The results are expressed as pmol of cAMP/mg protein.
Cyclic AMP formation was measured in freshly dispersed muscle cells in the presence of 100 µM isobutylmethylxanthine. Muscle cells were treated with PAR2-AP (1 µM) alone, forskolin (FSK, 10 µM) alone or forskolin plus PAR2-AP (1 µM) for 60 s and cAMP was measured by radioimmunoassay. In some experiments cells were treated with pertussis toxin (PTx, 200 ng/ml) for 60 min, and then treated with forskolin (10 µM) and PAR2-AP (1 µM) for 60 s. Results are expressed as pmol/mg protein.

[4] = system: dispersed gastric smooth muscle cells; conditions: for effect of inhibitor on sustained (10 min) contraction by PAR2-AP: inhibitor 10 min (U73122 10 µM, ML-9 10 µM, bisindolylmaleimide 1 µM, Y27632 1 µM), then PAR2-AP 1 µM 10 min; for contraction (decrease in cell length), comparator agonists: other contractile agonists, concentration not given
Rho kinase = Rho kinase activity (immunokinase assay), PAR2-AP-stimulated or basal; type: cell-based, rabbit; conditions: for basal Rho kinase activity with inhibitor alone / effect of inhibitor on PAR2-AP-induced Rho kinase activity: IKK IV 10 µM; for basal Rho kinase activity with inhibitor alone: MG-132 10 µM or myristoylated PKI 1 µM alone, basal 3125±502 cpm/mg protein, n = four; for effect of inhibitor on PAR2-AP-induced Rho kinase activity: MG-132 10 µM or myristoylated PKI 1 µM, PAR2-AP 1 µM 10 min, freshly dispersed cells, P<0.01
[5] = target: Protease-activated receptor 2 (PAR2) (rabbit (endogenous in gastric smooth muscle cells))
[6] = inhibitor 10 min (U73122 10 µM, ML-9 10 µM, bisindolylmaleimide 1 µM, Y27632 1 µM) or PTx 200 ng/ml 60 min, then PAR2-AP 1 µM 30 s

## PAR2 siRNA: PAR-2 (ID#s453494): sense: 5′ CCUCCUCUCUGUCAUCUGGTT 3′, antisense: 5′ CCAGAUGACAGAGAGGAGGTC3′ (chemistry not given here)
[1]
  effect of PAR2 siRNA on PAR2-AP-induced NF-kB and PKA catalytic subunit dissociation: blocked
PAR2 [2]
  expression of PAR2: greatly suppressed the expression of PAR2
PAR2 [3]; cultured cells transfected with PAR2 siRNA, PAR2-AP 1 µM 60 s, p<0.001, n = four
  inhibition of PAR2-AP-stimulated PI hydrolysis by PAR2 siRNA: 83±6%

## C=C[C@@]1(C)CC(=O)[C@]2(O)[C@@]3(C)[C@@H](O)CCC(C)(C)[C@@H]3[C@H](O)[C@H](OC(C)=O)[C@@]2(C)O1 [forskolin]
Adenylyl cyclase
  cAMP formation above basal level: 22.1±1.86 pmol/mg protein

## trypsin
PAR2 [3]; trypsin 1 µM, basal 439±68 cpm/mg protein
  PI hydrolysis above basal levels, trypsin: 2653±302 cpm/mg protein

## COc1ccc2c(c1)CC[C@@H]1[C@@H]2CC[C@]2(C)[C@@H](NCCCCCCN3C(=O)C=CC3=O)CC[C@@H]12 [U73122]
[4]; [6]
  effect of inhibitor on initial (30 s) contraction by PAR2-AP: abolished
[4]
  effect of inhibitor on sustained (10 min) contraction by PAR2-AP: not
PAR2 [3]; U73122 10 µM 10 min, then PAR2-AP 1 µM 60 s, freshly dispersed cells
  inhibition of PAR2-AP-stimulated PI hydrolysis by U73122: abolished
PAR2 [3]; no PAR2-AP, U73122 10 µM 10 min or PTx 200 ng/ml 60 min, basal 520±66 cpm/mg protein, no effect on basal
  PI hydrolysis with inhibitor alone: 485±86 cpm/mg protein

## NC(=O)Nc1sc(-c2ccc(F)cc2)cc1C(N)=O [IKK IV]
Rho kinase; no effect
  basal Rho kinase activity with inhibitor alone: 3021±486 cpm/mg protein
Rho kinase
  effect of inhibitor on PAR2-AP-induced Rho kinase activity: significantly augmented

## CC(C)C[C@@H](C=O)NC(=O)[C@H](CC(C)C)NC(=O)[C@H](CC(C)C)NC(=O)OCc1ccccc1 [MG-132] (Cbz-Leu-Leu-Leu-aldehyde)
Rho kinase; no effect
  basal Rho kinase activity with inhibitor alone: 2859±602 cpm/mg protein
Rho kinase
  effect of inhibitor on PAR2-AP-induced Rho kinase activity: significantly augmented

## myristoylated PKI: membrane-permeable specific PKA inhibitory peptide, myristoylated PKI 14-22 amide (Myristoyl-SGRTGRRNA-NH2; SMILES CCCCCCCCCCCCCC(=O)N[C@@H](CO)C(=O)NCC(=O)N[C@@H](CCCNC(=N)N)C(=O)N[C@H](C(=O)NCC(=O)N[C@@H](CCCNC(=N)N)C(=O)N[C@@H](CCCNC(=N)N)C(=O)N[C@@H](CC(N)=O)C(=O)N[C@@H](C)C(N)=O)[C@@H](C)O; UniProt P61925 14-22, looked up, fragment)
Rho kinase; no effect
  basal Rho kinase activity with inhibitor alone: 3254±574 cpm/mg protein
Rho kinase
  effect of inhibitor on PAR2-AP-induced Rho kinase activity: significantly augmented

## O=S(=O)(c1cccc2c(Cl)cccc12)N1CCCNCC1 [ML-9]
[4]; [6]
  effect of inhibitor on initial (30 s) contraction by PAR2-AP: abolished
[4]
  effect of inhibitor on sustained (10 min) contraction by PAR2-AP: not

## cholecystokinin
[4]
  contraction (decrease in cell length), comparator agonists: 29±2%

## bisindolylmaleimide
[4]
  effect of inhibitor on initial (30 s) contraction by PAR2-AP: not affected
  effect of inhibitor on sustained (10 min) contraction by PAR2-AP: not

## C[C@@H](N)[C@H]1CC[C@H](C(=O)Nc2ccncc2)CC1 [Y27632]
[4]; [6]
  effect of inhibitor on initial (30 s) contraction by PAR2-AP: not affected
[4]
  effect of inhibitor on sustained (10 min) contraction by PAR2-AP: preferentially blocked
Rho kinase; Y27632 1 µM alone, basal 3363±587 cpm/mg protein, no effect
  basal Rho kinase activity with Y27632 alone: 3025±425 cpm/mg protein

## NCCc1c[nH]c2ccc(O)cc12 [5-hydroxytryptamine]
[4]
  contraction (decrease in cell length), comparator agonists: 30±4%

## CC(=O)OCC[N+](C)(C)C [acetylcholine]
[4]
  contraction (decrease in cell length), comparator agonists: 31±3%

## SLIGRL [PAR2-activating peptide (PAR2-AP, SLIGRL)]
[5]
  stimulation of PI hydrolysis in freshly dispersed rabbit gastric smooth muscle cells, concentration-dependent (EC50): 2 nM
